Laboratory results from patent EP1857440A1, “Novel compounds, isomer thereof, or pharmaceutically acceptable salts thereof as vanilloid receptor antagonist; and pharmaceutical compositions containing the same” (Amorepacific Corporation, priority 2006, dated 2007).

Tests used:
Male ICR mice = experiment: Analgesic activity test: mouse writhing test induced with phenyl-p-quinone; format: in vivo; conditions: ip, 0.5 h, 30 min before phenyl-p-quinone, read-out: Analgesic effect (%Inhibition); for inhibition in vivo at 1 mg/kg: Dose 1 mg/kg intraperitoneally
Experimental: 2. Analgesic activity test: Mouse writhing test by inducing with phenyl-p-quinone
Male ICR mice (mean body weight 25g) were maintained in a controlled lighting environment (12 h on/ 12 h off) for experiment. Animals received an intraperitoneal injection of 0.3ml of the chemical irritant phenyl-p-quinone (dissolved in saline containing 5% ethanol to be a dose of 4.5mg/kg) and 6 mins later, the number of abdominal constrictions was counted in the subsequent 6 mins period. Animals (10 animals/group) received 0.2ml of test compounds solution in vehicle of ethanol/Tween 80/saline (10/10/80) intraperitoneally 30 min before the injection of phenyl-p-quinone. A reduction in the number of writhes responding to the test drug compound relative to the number responding in saline control group was considered to be indicative of an analgesic effect. Analgesic effect was calculated by % inhibition equation (% inhibition=(C-T)/C x 100), wherein C and T represent the number of writhes in control and compound-treated group, respectively (Table 2).

vanilloid receptor = target: T1, vanilloid receptor (Rattus norvegicus, UniProt O35433); experiment: 45Ca influx test (calcium uptake) in primary cultured neonatal rat DRG neurons, capsaicin-stimulated; format: cell-based, SD rats; conditions: capsaicin 0.5 µM; for IC50: 45Ca 10 µCi/ml, 10 mins at room temperature, read-out: Antagonist Calcium Uptake Test (IC50); for Antagonist Calcium Uptake Test (% @ 10 µM): 10 µM test compound
T1 construct: DRG nerve cells from the primary culture of 2 days were equilibrated by washing 4 times; endogenous in cells; host or cells: primary culture of dorsal root ganglion (DRG) neurons from neonatal SD rats
Experimental: 1) Separation of spinal dorsal root ganglia (DRG) in newborn rats and primary culture thereof
Neonatal (2-3 day old or younger than 2-3 day old) SD rats were put in ice for 5 minutes to anesthetize and disinfected with 70% ethanol. DRG of all part of spinal cord were dissected (Wood et al., 1988, J. Neurosci. 8, pp3208-3220) and collected in DME/F12 medium to which 1.2g/l sodium bicarbonate, 50mg/l gentamycin were added. The DRG were incubated sequentially at 37°C for 30 min in 200 U/ml collagenase and 2.5mg/ml trypsin, separately. The gangiia were washed twice with DME/F12 medium supplemented with 10% horse serum, triturated through a fire-polished Pasteur pipette, filtered through Nitex 80 membrane to obtain single cell suspension and the suspension was washed once more. This was subjected to centrifugation, then resuspended in cell culture medium at certain level of cell density. As the cell culture medium, DME/F12 medium supplemented with 10% horse serum was diluted with identical medium conditioned by C6 glioma cells 2 days on a confluent monolayer (1:1), and NGF (Nerve Growth Factor) was added to adjust 200ng/ml as final concentration. After the cells were grown 2 days in medium where cytosine arabinoside (Ara-C, 100 µM) was added to kill dividing nonneuronal cells, medium was changed to one without Ara-C. The resuspended cells were plated at a density of 1500-2000 neurons/well onto Terasaki plates previously coated with 10 µg/ml poly-D-ornithine.
2) ^45 Ca influx experiments
DRG nerve cells from the primary culture of 2 days were equilibrated by washing 4 times with HEPES (10mM, pH 7.4)-buffered Ca ^2+, Mg^2+-free HBSS (H-HBSS). The solution in each well was removed from the individual well. Medium containing the test compound plus capsaicin (final concentration 0.5 µM) and ^45Ca (final concentration 10 µCi/ml) in H-HBSS was added to each well and incubated at room temperature for 10 mins. Terasaki plates were washed five times with H-HBSS and dried at room temperature. To each well, 0.3% SDS (10 µl) was added to elute ^45Ca. After the addition of scintillation cocktail of into each well, the amount of ^45Ca influx into neuron was measured by counting radioactivity. […] [Table 1] Results of Calcium Influx Test

T1 sequence (O35433 whole entry): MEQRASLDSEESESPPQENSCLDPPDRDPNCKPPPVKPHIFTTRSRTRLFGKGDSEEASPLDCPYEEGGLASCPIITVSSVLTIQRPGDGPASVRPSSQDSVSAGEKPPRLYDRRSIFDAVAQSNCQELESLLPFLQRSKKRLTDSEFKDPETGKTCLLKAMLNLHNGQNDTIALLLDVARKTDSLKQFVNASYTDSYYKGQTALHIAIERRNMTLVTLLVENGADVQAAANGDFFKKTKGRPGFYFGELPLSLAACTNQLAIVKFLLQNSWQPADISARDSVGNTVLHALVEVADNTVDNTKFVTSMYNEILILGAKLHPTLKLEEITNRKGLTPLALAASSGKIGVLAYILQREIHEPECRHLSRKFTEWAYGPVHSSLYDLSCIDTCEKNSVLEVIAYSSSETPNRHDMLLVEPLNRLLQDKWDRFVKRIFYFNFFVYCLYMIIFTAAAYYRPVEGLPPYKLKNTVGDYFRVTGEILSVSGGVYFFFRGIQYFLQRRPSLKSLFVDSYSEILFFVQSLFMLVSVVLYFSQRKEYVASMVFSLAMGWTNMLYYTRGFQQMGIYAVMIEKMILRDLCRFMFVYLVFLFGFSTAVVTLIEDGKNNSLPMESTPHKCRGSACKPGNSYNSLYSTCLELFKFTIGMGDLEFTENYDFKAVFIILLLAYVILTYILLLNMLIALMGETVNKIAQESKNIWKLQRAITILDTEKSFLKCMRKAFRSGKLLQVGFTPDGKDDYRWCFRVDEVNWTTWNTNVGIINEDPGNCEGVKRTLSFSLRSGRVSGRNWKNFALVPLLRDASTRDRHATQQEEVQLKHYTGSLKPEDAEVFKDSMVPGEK

IC50 (vanilloid receptor) [µM] | Structure (SMILES) | also measured
> 10 | CS(=O)(=O)Nc1ccc(CNC(=O)COc2ccccc2C(F)(F)F)cc1F [Example 51, 2-(2-trifluoromethyl-phenoxy)-N-(3-fluoro-4-methanesulfonylaminobenzyl)-acetamide] | –
0.069 | CC(C)c1ccc(OCC(=O)NCc2ccc(NS(C)(=O)=O)c(F)c2)cc1 [Example 52, N-(3-Fluoro-4-methanesulfonylaminobenzyl)-2-(4-isopropylphenoxy)acetamide] | inhibition in vivo at 1 mg/kg (Male ICR mice): 49%
0.074 | CCC(C)c1ccc(OCC(=O)NCc2ccc(NS(C)(=O)=O)c(F)c2)cc1 (centres unmarked) [Example 53, N-(3-Fluoro-4-methanesulfonylaminobenzyl)-2-(4-sec-butylphenoxy)acetamide] | inhibition in vivo at 1 mg/kg (Male ICR mice): 49%
> 10 | CS(=O)(=O)Nc1ccc(CNC(=O)COc2ccc(F)c(F)c2)cc1F [Example 54, N-(3-Fluoro-4-methanesulfonylaminobenzyl)-2-(3,4-difluorophenoxy)acetamide] | –
5.6 | CC(C)(C)c1ccc(OCC(=O)NCc2ccc(NS(C)(=O)=O)c(F)c2)c(C(C)(C)C)c1 [Example 55, N-(3-Fluoro-4-methanesulfonylaminobenzyl)-2-(2,4-di-tert-butylphenoxy)acetamide] | –
5.1 | CS(=O)(=O)Nc1ccc(CNC(=O)COCc2ccc(C(F)(F)F)cc2C(F)(F)F)cc1F [Example 56, N-(3-Fluoro-4-methanesulfonylaminobenzyl)-2-(2,4-bis(trifluoromethyl)benzyloxy)acetamide] | –
0.13 | CCC(C)(C)c1ccc(OCC(=O)NCc2ccc(NS(C)(=O)=O)c(F)c2)cc1 [Example 57, N-(3-Fluoro-4-methanesulfonylaminobenzyl)-2-(4-(1,1-dimethylpropyl)phenoxy)acetamide] | –
3 | CC(C)(C)C(=O)OCc1cc(C(F)(F)F)ccc1OCC(=O)NCc1ccc(NS(C)(=O)=O)c(F)c1 [Example 58, 2,2-Dimethyl-propionic acid 2-[(3-fluoro-4-methanesulfonylaminobenzylcarbamoyl)-methoxy]-5-trifluoromethyl-benzyl ester] | –
> 10 | CS(=O)(=O)Nc1ccc(CNC(=O)COc2ccc(Cl)c(F)c2)cc1F [Example 59, N-(3-Fluoro-4-methanesulfonylaminobenzyl)-2-(4-chloro-3-fluorophenoxy)acetamide] | –
> 10 | CS(=O)(=O)Nc1ccc(CNC(=O)COc2ccc(-c3ccccc3Cl)cc2)cc1F [Example 60, 2-(2'-Chloro-biphenyl-4-yloxy)-N-(3-fluoro-4-methanesulfonylaminobenzyl)-acetamide] | –
4.5 | CS(=O)(=O)Nc1ccc(CNC(=O)COc2cccc(-c3ccccc3Cl)c2)cc1F [Example 61, 2-(2'-Chloro-biphenyl-3-yloxy)-N-(3-fluoro-4-methanesulfonylaminobenzyl)-acetamide] | –
> 10 | CS(=O)(=O)Nc1ccc(CNC(=O)COc2ccc(C3CCCCC3)cc2)cc1F [Example 64, N-(3-fluoro-4-methanesulfonylamino-benzyl)-2-(4-Cyclohexylphenoxy)-acetamide] | –

Further lines, the compound ahead of its results:

Structure (SMILES) | IC50 (vanilloid receptor) [µM] | also measured
CC(C)(C)c1ccc(OCC(=O)NCc2ccc(NS(C)(=O)=O)c(F)c2)cc1 [Example 2, 2-(4-tert-Butylphenoxy)-N-(3-fluoro-4-methanesulfonylaminobenzyl)acetamide] | 0.0086 | inhibition in vivo at 0.3 mg/kg (Male ICR mice; Dose 0.3 mg/kg intraperitoneally): 51%
CC(C)(C)c1ccc(OCC(=O)NCc2ccc(NS(C)(=O)=O)c(Cl)c2)cc1 [Example 3, 2-(4-tert-Butylphenoxy)-N-(3-chloro-4-methanesulfonylaminobenzyl)-acetamide] | 0.18 | inhibition in vivo at 1 mg/kg (Male ICR mice): 39%
C=Cc1cc(CNC(=O)COc2ccc(C(C)(C)C)cc2)cc(F)c1NS(C)(=O)=O [Example 5, 2-(4-tert-Butylphenoxy)-N-(3-fluoro-4-methanesulfonylamino-5-vinylbenzyl)acetamide] | 0.034 | inhibition in vivo at 1 mg/kg (Male ICR mice): 59%
C#Cc1cc(CNC(=O)COc2ccc(C(C)(C)C)cc2)cc(F)c1NS(C)(=O)=O [Example 6, 2-(4-tert-Butylphenoxy)-N-(3-ethynyl-5-fluoro-4-methanesulfonylaminobenzyl)acetamide] | 0.019 | inhibition in vivo at 0.1 mg/kg (Male ICR mice; Dose 0.1 mg/kg intraperitoneally): 41%
C[C@@H](NC(=O)COc1ccc(C(C)(C)C)cc1)c1ccc(NS(C)(=O)=O)c(F)c1 [Example 12, (R)-2-(4-tert-Butylphenoxy)-N-[1-(3-fluoro-4-methanesuffonylaminophenyl)ethyl]acetamide] | 0.071 | inhibition in vivo at 1 mg/kg (Male ICR mice): 27%
CC(C)(C)c1ccc(OCC(=NC#N)NCc2ccc(NS(C)(=O)=O)c(F)c2)cc1 [Example 18, 2-(4-tert-Butylphenoxy)-N-(3-fluoro-4-methanesulfonylaminobenzyl)-N'-cyanoacetamidine] | 0.12 | inhibition in vivo at 1 mg/kg (Male ICR mice): 33%
CS(=O)(=O)Nc1ccc(CNC(=O)COc2ccc(C(F)(F)F)cc2)cc1F [Example 24, N-(3-Fluoro-4-methanesulfonylamino-benzyl)-2-(4-trifluoromethylphenoxy)-acetamide] | 1.3 | inhibition in vivo at 10 mg/kg (Male ICR mice; Dose 10 mg/kg intraperitoneally): 28%
CC(=O)c1cc(C(F)(F)F)ccc1OCC(=O)NCc1ccc(NS(C)(=O)=O)c(F)c1 [Example 44, 2-(2-Acetyl-4-trifluoromethyl-phenoxy)-N-(3-fluoro-4-methanesulfonylamino-benzyl)-acetamide] | > 10 | –
CS(=O)(=O)Nc1ccc(CNC(=O)COc2ccc(Br)cc2)cc1F [Example 45, 2-(4-Bromo-phenoxy)-N-(3-fluoro-4-methanesulfonylamino-benzyl)-acetamide] | 3.7 | –
CS(=O)(=O)Nc1ccc(CNC(=O)COc2cccc(Br)c2)cc1F [Example 46, 2-(3-Bromo-phenoxy)-N-(3-fluoro-4-methanesulfonylamino-benzyl)-acetamide] | 1.7 | –
CC(C)(C)c1ccc(OCC(=O)NCc2cc(F)c(NS(C)(=O)=O)c(C#N)c2)cc1 [Example 47, 2-[4-(tert-butyl)phenoxy]-N-(3-cyano-5-fluoro-4-methanesulfonyl Amino-benzyl)acetamide] | 0.15 | –
CC(C)(C)c1ccc(OC(F)C(=O)NCc2ccc(NS(C)(=O)=O)c(F)c2)cc1 (centres unmarked) [Example 48, 2-(4-tert-Butylphenoxy)-2-fluoro-N-(3-fluoro-4-methanesulfonylaminobenzyl)acetamide] | 0.18 | –
CS(=O)(=O)Nc1ccc(CNC(=O)COc2ccc3c(c2)CCC3)cc1F [Example 62, N-(3-Fluoro-4-methanesulfonylaminobenzyl)-2-(indan-5-yloxy)acetamide] | – | Antagonist Calcium Uptake Test (% @ 10 µM) (vanilloid receptor): 82% @ 10 µM
CS(=O)(=O)Nc1ccc(CNC(=O)COc2ccccc2C2CCCCC2)cc1F [Example 63, N-(3-Fluoro-4-methanesulfonylaminobenzyl)-2-(2-cyclohexylphenoxy)acetamide] | – | Antagonist Calcium Uptake Test (% @ 10 µM) (vanilloid receptor): 52% @ 10 µM
